In patent US12215354B2, “Differentiation of human embryonic stem cells into single hormonal insulin positive cells” (Janssen Biotech, Inc., priority 2011, dated 2025):

Experiments:
[1] = system: human embryonic stem cell line H1; experiment: Real-time PCR gene expression, BMP inhibition and PKC activation at S3 (Example 2); type: cell-based; conditions: 50 nM compared with 200 nM at S3
Method: Cells of the human embryonic stem cell line H1 were harvested at various passages (passage 40 to passage 52) and were seeded as single cells at a density of 100,000 cells/cm^2 on MATRIGEL™ (1:30 dilution) coated dishes in mTesr™1 media supplemented with 10 μM of Y27632. Forty eight hours post-seeding, cultures were differentiated into cells of the pancreatic endocrine lineage as follows: • a. Stage 1 (Definitive Endoderm (DE)—3 days): Prior to start of DE, the cultures were washed and incubated with incomplete PBS (no Mg or Ca) for 30 seconds followed by addition of the stage 1 media. Human embryonic stem cells cultured as single cells on MATRIGEL™-coated dishes were treated with MCDB-131 medium supplemented with 0.1% fatty acid-free BSA, 0.0012 g/ml sodium bicarbonate, 1× GLUTAMAX™, and 2.5 mM D-Glucose, 100 ng/ml GDF8, and […] MCX compound (GSK3B inhibitor) for one day. Cells were then treated with MCDB-131 medium supplemented with 0.1% fatty acid-free BSA, 0.0012 g/ml sodium bicarbonate, 1× GLUTAMAX™, 2.5 mM glucose, and 100 ng/ml GDF8 for days 2-3. • b. […]
mRNA was collected at S2-S4 for all the conditions listed above and analyzed using real-time PCR. […]

[2] = system: human embryonic stem cell line H1; experiment: Real-time PCR gene expression, dose of BMP inhibitor at S4 (Example 5); type: cell-based; conditions: 50 nM or 100 nM at days 1, 2, 3, or 4 of S4
Method: Cells of the human embryonic stem cell line H1 at various passages (passage 40 to passage 52) were seeded as single cells at a density of 100,000 cells/cm^2 on MATRIGEL™ (1:30 dilution) coated dishes in mTesr™1 media and 10 μM of Y27632. Forty eight hours post seeding, cultures were differentiated into pancreatic endocrine lineage as follows: • a. Stage 1 (Definitive Endoderm (DE)−4 days): Prior to start of DE, the cultures were washed and incubated with incomplete PBS (no Mg or Ca) for 30 seconds followed by addition of the stage 1 media. Human embryonic stem cells cultured as single cells on MATRIGEL™-coated dishes were treated with MCDB-131 medium supplemented with 0.1% fatty acid-free BSA, 0.0012 g/ml sodium bicarbonate, 1× GLUTAMAX™, 2.5 mM D-Glucose, 100 ng/ml GDF8, and 1 μM MCX compound (GSK3B inhibitor) for one day. Cells were then treated with MCDB-131 medium supplemented with 0.1% fatty acid-free BSA, 0.0012 g/ml sodium bicarbonate, 1× GLUTAMAX™, 2.5 mM glucose, and 100 ng/ml GDF8 for days 2-4. • b. Stage 2 (Primitive gut tube−3 days): Stage 1 cells were treated with MCDB-131 medium supplemented with 0.1% fatty acid-free BSA, 0.0012 g/ml sodium bicarbonate, 1× GLUTAMAX™, 2.5 mM D-Glucose, and 50 ng/ml FGF7 for three days. • c. […]

c1ccc2c(-c3cnn4cc(-c5ccc(N6CCNCC6)cc5)cnc34)ccnc2c1 [LDN-193189]
induction of endocrine markers (chromogranin and NGN3) [1]: as effective as 200 nM LDN-193189 | expression of endocrine markers [2]: prolong | expression of SOX2 ([2]; at S4-S5): low expression
